Data taken from paper PMC4536891, “Insertion of a xylanase in xylose binding protein results in a xylose-stimulated xylanase” (Biotechnology for Biofuels, 2015).

Experiments:
[1] = target: T1, 2621B (XynA inserted in XBP at position 262); assay: intrinsic tryptophan fluorescence titration; assay type: binding, Escherichia coli; conditions: 20 mM Hepes pH 7.5, 25 °C; 3 µM protein; XBP domain site, allosteric activator of xylanase
T1 construct: gene xylF; single polypeptide: XBP to Q262, linker GGGG, XynA (1-185), linker GA, XBP from residue 263; pET28a, E. coli Rosetta (DE3), Ni-NTA (His tag not described); with Endo-1,4-beta-xylanase A

parental XynA = target: T2, parental XynA (Bacillus subtilis, UniProt P18429); assay: RBB-xylan hydrolysis by culture supernatant, dye release at […] nm; assay type: biochemical; conditions: 1% (m/v) D-xylose; acetate pH 5.5, 37 °C; product inhibition
T2 construct: GH11 xylanase, mature 185 residues; activity ratio measured in culture supernatants

[2] = target: T3, parental XBP (xylose binding protein, XylF) (Escherichia coli, UniProt P37387); assay: intrinsic tryptophan fluorescence titration; conditions: 20 mM Hepes pH 7.5, 25 °C; 3 µM protein
T3 construct: full XBP expressed in E. coli Rosetta (DE3) and purified; vector, tag and signal peptide of the purified parental XBP not described
T3 sequence (P37387 24-330): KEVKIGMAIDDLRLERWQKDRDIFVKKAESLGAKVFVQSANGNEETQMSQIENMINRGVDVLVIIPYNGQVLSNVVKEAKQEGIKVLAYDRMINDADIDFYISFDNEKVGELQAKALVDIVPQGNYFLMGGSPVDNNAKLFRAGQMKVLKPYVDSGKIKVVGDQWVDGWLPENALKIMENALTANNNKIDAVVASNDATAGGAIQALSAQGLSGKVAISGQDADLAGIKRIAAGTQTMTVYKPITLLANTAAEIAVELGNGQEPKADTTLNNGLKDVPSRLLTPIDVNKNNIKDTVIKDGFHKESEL

[3] = target: T4, 2091A (XynA inserted in XBP at position 209); assay: intrinsic tryptophan fluorescence titration; assay type: binding, Escherichia coli; conditions: 20 mM Hepes pH 7.5, 25 °C; 3 µM protein; XBP domain site, allosteric activator of xylanase
T4 construct: gene xylF; single polypeptide: XBP to A209, linker AG, XynA (1-185), linker GGA, XBP from residue 210; pET28a, E. coli Rosetta (DE3), Ni-NTA (His tag not described); with Endo-1,4-beta-xylanase A

Kd [1]: 0.16 ± 0.01 µM
+xyl/-xyl ratio^a (parental XynA): 0.80 ± 0.04
Kd [2]: 0.14 ± 0.03 µM
Kd [3]: 0.15 ± 0.02 µM
SMILES: OC1OC[C@@H](O)[C@H](O)[C@H]1O (stereo partly drawn) [D-xylose]
